{"source": "paper PMC5829162", "about": "“Rational Design, Synthesis and Biological Evaluation of Pyrimidine-4,6-diamine derivatives as Type-II inhibitors of FLT3 Selective Against c-KIT” (Scientific Reports, 2018)", "key": {"FLT3-driven cell lines": {"tested_on": "FLT3-driven cell lines", "assay": "Cell-based studies, FLT3-driven cell lines overall", "settings": "result in words", "text": "(§1) Stable BaF3 populations expressing activated FLT3 were generated by retroviral spinfection with the appropriate mutated plasmid followed by selection and growth factor withdrawal as previously described. The BaF3 cell line was originally obtained from the laboratory of Charles Sawyers and has not been authenticated. MV411 and Molm14 cells were obtained from the laboratory of Scott Kogan and authenticated by Promega STR analysis in June 2013. All cell lines were mycoplasma-free. Cells were incubated with compounds for 48 hours and proliferation was assessed using CellTiter-Glo (Promega; Madison, WI) according to the manufacturer’s recommendation on a SpectraMax M3 microplate reader using SpectraMax Software (Molecular Devices; Sunnyvale, CA). All cell viability data shown is reflective of experiments performed a minimum of three times. […]\nS13. […]\n2013. […] Cells were incubated with compounds for 48 hours and proliferation was assessed using CellTiter -Glo (Promega; Madison, WI) according to the manufacturer’s recommendation on a SpectraMax M3 microplate reader using SpectraMax Software (Molecular Devices; Sunnyvale, CA). […]"}, "FLT3 kinase": {"biological_target": "T1, FLT3 kinase (Homo sapiens, UniProt P36888)", "T1 construct": "purchased Invitrogen", "T1 sequence (P36888 27-993)": "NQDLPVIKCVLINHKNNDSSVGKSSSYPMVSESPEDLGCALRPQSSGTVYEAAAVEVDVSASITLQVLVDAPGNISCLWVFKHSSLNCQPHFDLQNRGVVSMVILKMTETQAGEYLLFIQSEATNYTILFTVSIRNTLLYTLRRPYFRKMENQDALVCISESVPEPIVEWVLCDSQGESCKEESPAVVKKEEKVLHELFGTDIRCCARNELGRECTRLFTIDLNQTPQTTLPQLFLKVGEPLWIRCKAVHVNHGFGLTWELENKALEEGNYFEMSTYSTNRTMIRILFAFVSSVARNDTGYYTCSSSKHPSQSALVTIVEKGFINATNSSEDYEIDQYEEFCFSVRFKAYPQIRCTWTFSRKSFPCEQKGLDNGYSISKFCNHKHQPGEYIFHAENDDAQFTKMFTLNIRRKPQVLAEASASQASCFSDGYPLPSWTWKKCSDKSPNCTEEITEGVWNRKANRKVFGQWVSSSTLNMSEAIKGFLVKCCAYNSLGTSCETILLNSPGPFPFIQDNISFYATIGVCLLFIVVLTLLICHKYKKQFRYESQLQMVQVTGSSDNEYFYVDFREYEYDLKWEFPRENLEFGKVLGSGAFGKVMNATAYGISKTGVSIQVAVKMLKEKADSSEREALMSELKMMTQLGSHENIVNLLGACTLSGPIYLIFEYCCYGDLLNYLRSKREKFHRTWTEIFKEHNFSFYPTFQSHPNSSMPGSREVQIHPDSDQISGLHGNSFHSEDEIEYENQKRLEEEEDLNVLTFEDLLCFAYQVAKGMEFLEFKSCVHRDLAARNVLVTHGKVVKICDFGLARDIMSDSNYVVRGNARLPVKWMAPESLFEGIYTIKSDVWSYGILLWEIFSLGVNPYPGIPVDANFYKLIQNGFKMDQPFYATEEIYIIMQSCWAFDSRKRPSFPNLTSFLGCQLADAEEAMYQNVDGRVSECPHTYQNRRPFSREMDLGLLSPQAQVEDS", "assay": "Biochemical enzyme inhibition assay (microfluidics, Caliper EZ Reader II), FLT3", "experimental": "Kinase activity was measured in a microfluidics assay that monitors the separation of a phosphorylated product from substrate[31],[32]. […] After, 1 μL was transferred into a 384-well polypropylene assay plate (Greiner, Frickenhausen, Germany). The FLT3 enzyme (Invitrogen™, Grand Island, USA) was diluted in kinase buffer to a concentration of 2 nM and 5 µL of the enzyme mixture was transferred to the assay plate. The inhibitors/FLT3 enzyme were incubated for 60 minutes with minor shaking. […] For positive control, no inhibitor was added. For negative control, no enzyme was added. For running control, quizartinib was utilized. The plate was run until 10–20% conversion based on the positive control wells. The following separation conditions were utilized: upstream voltage −500V; downstream voltage, −1900V; chip pressure −0.8. Percent inhibition was measured for each well comparing starting peptide to phosphorylated product peaks relative to the baseline. Dose response curves, spanning the IC50 dose, were generated in GraphPad Prisim 6 and fit to an exponential one-phase decay line and IC50 values were obtained from the half-life value of the curve. IC50 values were generated in duplicate and error was calculated from the standard deviation between values.\nS10. Biochemical Inhibition Assay:1,2 Kinase activity was measured in a microfluidics assay that monitors the separation of a phosphorylated product from substrate. The assay was run using a 12-sipper chip on a Caliper EZ Reader II (PerkinElmer®, Walthman, USA) with separation […]\nWalthman, USA]). In 96-well polypropylene plates (Greiner, Frickenhausen, Germany) […]\nAfter, 1 μL was transferred into a 384-well polypropylene assay plate (Greiner, Frickenhausen, Germany). The FLT3 enzyme (Invitrogen™, Grand Island, USA) was diluted in kinase buffer to a concentration of 2 nM and 5 µL of the enzyme mixture was transferred to the assay plate. The inhibitors/FLT3 enzyme were incubated for 60 minutes with minor shaking. A substrate mix was prepared containing ATP (Ambresco®, Solon, USA) and […]\nUSA) dissolved in kinase buffer, and 5 µL of the substrate mix was added to the assay plate.\nFor positive control, no inhibitor was added. For negative control, no enzyme was added. For running control, quizartinib was utilized. The plate was run until 10-20% conversion based on the positive control wells. The following separation conditions were utilized: upstream voltage -500V; downstream voltage, -1900V; chip pressure - 0.8. Percent inhibition was measured for each well comparing starting peptide to phosphorylated product peaks relative to the baseline. Dose response curves, spanning the IC50 dose, were generated in GraphPad Prisim 6 and fit to an exponential one-phase decay line and IC50 values were obtained from the half-life value of the curve. IC50 values were generated in duplicate and error was calculated from the standard deviation between values. […]"}, "MV4–11 AML cells": {"tested_on": "MV4–11 AML cells", "assay": "Cell proliferation (CellTiter-Glo, 48 h), MV4-11", "assay_type": "cell-based", "settings": "Homo sapiens; MV4–11, 48 hours", "text": "as §1\nS13. Cell Cultures: Stable BaF3 populations expressing activated FLT3 were generated by retroviral spinfection with the appropriate mutated plasmid followed by selection and growth factor withdrawal as previously described .4 The BaF3 cell line was originally obtained from the laboratory of Charles Sawyers and has not been authenticated. MV411 and Molm14 cells were obtained from the laboratory of Scott Kogan and authenticated by Promega STR analysis in June\n2013. All cell lines were mycoplasma -free. Cells were incubated with compounds for 48 hours and proliferation was assessed using CellTiter -Glo (Promega; Madison, WI) according to the manufacturer’s recommendation on a SpectraMax M3 microplate reader using SpectraMax Software (Molecular Devices; Sunnyvale, CA). All cell viability data shown is reflective of experiments performed a minimum of three times."}}}
{"smiles": "Cn1nc(C(C)(C)C)cc1NC(=O)Cc1ccc(Nc2cc(NCCCN3CCCC3)ncn2)cc1", "note": "[13d, 2-(4-(6-(3-(Pyrrolidin-1-yl)propylamino)pyrimidin-4-ylamino)phenyl)-N-(3-tert-butyl-1-methyl-1H-pyrazol-5-yl)acetamide]", "values": [{"measurement": "inhibition of FLT3-driven cellular growth", "setting": "FLT3-driven cell lines", "result": "failed to effectively inhibit FLT3-driven cellular growth"}, {"measurement": "IC50", "setting": "FLT3 kinase; in vitro kinase assay, 60 min pre-incubation, ATP 190 µM, three independent experiments, read-out: FLT3 IC50 (nM) ± SD", "result": "377 ± 20", "unit": "nM"}, {"measurement": "LE", "setting": "FLT3 kinase; ligand efficiency for FLT3 inhibition", "result": 0.24}, {"measurement": "GI50", "setting": "MV4–11 AML cells", "result": 2250, "unit": "nM"}]}
